Measured values from the CheMixHub viscosity set.

Test: xn = mol fraction of the nth substance listed

CCOC(=O)c1ccccc1 + CCCCCCCCCCCC
101 kPa
Conditions | viscosity [mPa·s]
298.15 K, x2 = 0.031 | 1.896
298.15 K, x2 = 0.062 | 1.835
298.15 K, x2 = 0.0893 | 1.785
298.15 K, x2 = 0.1261 | 1.726
298.15 K, x2 = 0.168 | 1.663
298.15 K, x2 = 0.2378 | 1.58
298.15 K, x2 = 0.2782 | 1.532
298.15 K, x2 = 0.3577 | 1.462
298.15 K, x2 = 0.4064 | 1.427
298.15 K, x2 = 0.4557 | 1.396
298.15 K, x2 = 0.5044 | 1.371
298.15 K, x2 = 0.5519 | 1.351
298.15 K, x2 = 0.6714 | 1.331
298.15 K, x2 = 0.7194 | 1.324
298.15 K, x2 = 0.7886 | 1.32
298.15 K, x2 = 0.8626 | 1.325
298.15 K, x2 = 0.9296 | 1.335
308.15 K, x2 = 0.0462 | 1.569
308.15 K, x2 = 0.0741 | 1.532
308.15 K, x2 = 0.1171 | 1.477
308.15 K, x2 = 0.1439 | 1.445
308.15 K, x2 = 0.1806 | 1.405
308.15 K, x2 = 0.2481 | 1.342
308.15 K, x2 = 0.2629 | 1.329
308.15 K, x2 = 0.295 | 1.303
308.15 K, x2 = 0.3388 | 1.272
308.15 K, x2 = 0.3769 | 1.249
308.15 K, x2 = 0.4331 | 1.218
308.15 K, x2 = 0.4765 | 1.198
308.15 K, x2 = 0.527 | 1.178
308.15 K, x2 = 0.5759 | 1.163
308.15 K, x2 = 0.6373 | 1.149
308.15 K, x2 = 0.7278 | 1.138
308.15 K, x2 = 0.7527 | 1.136
308.15 K, x2 = 0.8209 | 1.134
308.15 K, x2 = 0.9374 | 1.142
318.15 K, x2 = 0.0278 | 1.314
318.15 K, x2 = 0.0571 | 1.276
318.15 K, x2 = 0.0872 | 1.241
318.15 K, x2 = 0.1222 | 1.203
318.15 K, x2 = 0.155 | 1.173
318.15 K, x2 = 0.1942 | 1.14
318.15 K, x2 = 0.2296 | 1.113
318.15 K, x2 = 0.2726 | 1.084
318.15 K, x2 = 0.3115 | 1.061
318.15 K, x2 = 0.3575 | 1.037
318.15 K, x2 = 0.3995 | 1.019
318.15 K, x2 = 0.4522 | 0.999
318.15 K, x2 = 0.4995 | 0.984
318.15 K, x2 = 0.5564 | 0.97
318.15 K, x2 = 0.6085 | 0.961
318.15 K, x2 = 0.6725 | 0.954
318.15 K, x2 = 0.7324 | 0.95
318.15 K, x2 = 0.7851 | 0.948
318.15 K, x2 = 0.868 | 0.953

CCOC(=O)c1ccccc1 + CCCCCCCCCCCCCC
101 kPa
Conditions | viscosity [mPa·s]
298.15 K, x2 = 0.0376 | 1.927
298.15 K, x2 = 0.0653 | 1.899
298.15 K, x2 = 0.097 | 1.866
298.15 K, x2 = 0.1285 | 1.84
298.15 K, x2 = 0.1619 | 1.815
298.15 K, x2 = 0.1952 | 1.799
298.15 K, x2 = 0.229 | 1.781
298.15 K, x2 = 0.269 | 1.767
298.15 K, x2 = 0.3084 | 1.754
298.15 K, x2 = 0.3521 | 1.745
298.15 K, x2 = 0.3928 | 1.742
298.15 K, x2 = 0.4877 | 1.744
298.15 K, x2 = 0.5485 | 1.755
298.15 K, x2 = 0.5924 | 1.767
298.15 K, x2 = 0.6572 | 1.791
298.15 K, x2 = 0.7238 | 1.827
298.15 K, x2 = 0.7795 | 1.867
298.15 K, x2 = 0.8695 | 1.935
308.15 K, x2 = 0.0358 | 1.606
308.15 K, x2 = 0.0727 | 1.582
308.15 K, x2 = 0.1009 | 1.566
308.15 K, x2 = 0.1305 | 1.552
308.15 K, x2 = 0.1614 | 1.537
308.15 K, x2 = 0.198 | 1.524
308.15 K, x2 = 0.2316 | 1.515
308.15 K, x2 = 0.2666 | 1.506
308.15 K, x2 = 0.3094 | 1.498
308.15 K, x2 = 0.3501 | 1.493
308.15 K, x2 = 0.3905 | 1.49
308.15 K, x2 = 0.4393 | 1.489
308.15 K, x2 = 0.4794 | 1.491
308.15 K, x2 = 0.5373 | 1.498
308.15 K, x2 = 0.5983 | 1.51
308.15 K, x2 = 0.6573 | 1.527
308.15 K, x2 = 0.7193 | 1.552
308.15 K, x2 = 0.8442 | 1.615
308.15 K, x2 = 0.9249 | 1.663
318.15 K, x2 = 0.0231 | 1.332
318.15 K, x2 = 0.0543 | 1.31
318.15 K, x2 = 0.0817 | 1.291
318.15 K, x2 = 0.1144 | 1.274
318.15 K, x2 = 0.1449 | 1.259
318.15 K, x2 = 0.1819 | 1.245
318.15 K, x2 = 0.2156 | 1.233
318.15 K, x2 = 0.2563 | 1.225
318.15 K, x2 = 0.2936 | 1.219
318.15 K, x2 = 0.3396 | 1.213
318.15 K, x2 = 0.3807 | 1.212
318.15 K, x2 = 0.4322 | 1.213
318.15 K, x2 = 0.4784 | 1.216
318.15 K, x2 = 0.5446 | 1.226
318.15 K, x2 = 0.5958 | 1.237
318.15 K, x2 = 0.6468 | 1.251
318.15 K, x2 = 0.6941 | 1.267
318.15 K, x2 = 0.7925 | 1.306
318.15 K, x2 = 0.8579 | 1.336

CC(C)CC1CCCCC1 + CCCCCCCCCCCCCCCC
viscosity [mPa·s], 102 kPa
Conditions | x1 = 0.1 | x1 = 0.2005 | x1 = 0.3003 | x1 = 0.3992 | x1 = 0.5037 | x1 = 0.6003 | x1 = 0.6997 | x1 = 0.7997
293.15 K | 3.22 | 2.96 | 2.7 | 2.46 | 2.2 | 1.99 | 1.77 | 1.56
303.15 K | 2.57 | 2.38 | 2.19 | 2.01 | 1.82 | 1.65 | 1.48 | 1.31
313.15 K | 2.1 | 1.95 | 1.81 | 1.67 | 1.52 | 1.39 | 1.26 | 1.12
323.15 K | 1.74 | 1.63 | 1.52 | 1.41 | 1.29 | 1.19 | 1.07 | 0.972
